From article PMC10914731, “Homo-BacPROTAC-induced degradation of ClpC1 as a strategy against drug-resistant mycobacteria” (Nature Communications, 2024)
Converted amounts (≈) assume the structure as drawn. “And” between values parts separate entries of the source, which are not always exact repeats. Equal values may be shown once. Read-outs that look alike come from different tables or passages of the source.

Columns and labels:
[1] = format: in vitro ADME, Mice; conditions: clearance in microsomes
In short: (§1)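 1 µmol/l cpd + 0.5 mg/ml microsomes, Tris-HCl 100 mM pH 7.5 / MgCl2 6.5 mM / NADPH 1 mM, 37 °C. Timed acetonitrile quench, spin, supernatant by HPLC-MS/MS. t1/2 from first-order decay → clearance %Qh, well-stirred model.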

[2] = format: in vitro ADME, Human; conditions: human, pH 7.4
[3] = tested on: M. tuberculosis H37Rv (ATCC 27294); experiment: microbe, parasite or virus in culture; format: cell-based
[4] = Microsomal stability, human; format: in vitro ADME
In short: as §1

[5] = format: in vitro ADME, Rat
In short: as §1

[6] = tested on: Msm 607; experiment: microbe, parasite or virus in culture; format: cell-based
[7] = molecular target: ClpC1-NTD substrate, M. tuberculosis ClpC1P1P2 (Mycobacterium tuberculosis, UniProt P9WPC9); experiment: biochemical; format: biochemical; conditions: Mtb
ClpC1-NTD substrate, M. tuberculosis ClpC1P1P2, sequence (P9WPC5 whole entry): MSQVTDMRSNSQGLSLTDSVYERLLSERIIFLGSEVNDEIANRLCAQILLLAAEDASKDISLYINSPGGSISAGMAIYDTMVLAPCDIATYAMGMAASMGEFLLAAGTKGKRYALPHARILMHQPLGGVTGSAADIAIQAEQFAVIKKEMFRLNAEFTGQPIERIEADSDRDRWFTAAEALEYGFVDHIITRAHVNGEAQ
ClpC1-NTD substrate, M. tuberculosis ClpC1P1P2, sequence (P9WPC9 whole entry): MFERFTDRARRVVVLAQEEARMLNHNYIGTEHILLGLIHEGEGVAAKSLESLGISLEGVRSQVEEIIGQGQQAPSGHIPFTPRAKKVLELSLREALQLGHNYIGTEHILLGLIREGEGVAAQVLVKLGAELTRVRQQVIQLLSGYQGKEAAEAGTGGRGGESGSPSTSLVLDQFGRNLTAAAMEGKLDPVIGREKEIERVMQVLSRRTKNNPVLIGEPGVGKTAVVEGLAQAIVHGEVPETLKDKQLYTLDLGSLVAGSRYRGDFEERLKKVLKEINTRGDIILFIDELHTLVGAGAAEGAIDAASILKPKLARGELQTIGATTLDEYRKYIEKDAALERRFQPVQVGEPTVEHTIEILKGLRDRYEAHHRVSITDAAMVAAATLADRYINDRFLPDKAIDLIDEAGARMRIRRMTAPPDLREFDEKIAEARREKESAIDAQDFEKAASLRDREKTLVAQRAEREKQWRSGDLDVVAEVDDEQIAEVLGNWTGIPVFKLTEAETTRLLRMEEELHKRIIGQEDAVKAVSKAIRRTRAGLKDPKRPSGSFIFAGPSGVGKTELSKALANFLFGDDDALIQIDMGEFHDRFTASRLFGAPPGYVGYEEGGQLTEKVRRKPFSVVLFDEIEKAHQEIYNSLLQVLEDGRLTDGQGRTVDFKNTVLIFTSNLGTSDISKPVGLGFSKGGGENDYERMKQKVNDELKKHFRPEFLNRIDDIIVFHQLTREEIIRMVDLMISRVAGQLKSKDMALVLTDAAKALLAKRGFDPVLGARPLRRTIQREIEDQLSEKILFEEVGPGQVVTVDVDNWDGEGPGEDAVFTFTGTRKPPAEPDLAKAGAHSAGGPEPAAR
ClpC1-NTD substrate, M. tuberculosis ClpC1P1P2, sequence (P9WPC3 whole entry, further chain): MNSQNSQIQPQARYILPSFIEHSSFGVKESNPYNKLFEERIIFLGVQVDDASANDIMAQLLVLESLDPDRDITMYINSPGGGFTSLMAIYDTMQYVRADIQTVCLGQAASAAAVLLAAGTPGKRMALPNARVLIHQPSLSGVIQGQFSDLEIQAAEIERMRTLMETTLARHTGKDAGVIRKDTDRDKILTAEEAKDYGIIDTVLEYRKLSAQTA

[8] = molecular target: His6-tagged ClpC1-NTD substrate, M. smegmatis ClpC1P1P2 (UniProt A0R574+P9WPC9); experiment: biochemical; format: biochemical; conditions: Msm
His6-tagged ClpC1-NTD substrate, M. smegmatis ClpC1P1P2, sequence (P9WPC9 1-156, looked up, natural form): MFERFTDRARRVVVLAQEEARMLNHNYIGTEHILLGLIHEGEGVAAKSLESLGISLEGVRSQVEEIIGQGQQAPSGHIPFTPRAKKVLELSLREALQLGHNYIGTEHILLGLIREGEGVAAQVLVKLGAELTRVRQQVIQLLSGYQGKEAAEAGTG
His6-tagged ClpC1-NTD substrate, M. smegmatis ClpC1P1P2, sequence (A0R574 whole entry): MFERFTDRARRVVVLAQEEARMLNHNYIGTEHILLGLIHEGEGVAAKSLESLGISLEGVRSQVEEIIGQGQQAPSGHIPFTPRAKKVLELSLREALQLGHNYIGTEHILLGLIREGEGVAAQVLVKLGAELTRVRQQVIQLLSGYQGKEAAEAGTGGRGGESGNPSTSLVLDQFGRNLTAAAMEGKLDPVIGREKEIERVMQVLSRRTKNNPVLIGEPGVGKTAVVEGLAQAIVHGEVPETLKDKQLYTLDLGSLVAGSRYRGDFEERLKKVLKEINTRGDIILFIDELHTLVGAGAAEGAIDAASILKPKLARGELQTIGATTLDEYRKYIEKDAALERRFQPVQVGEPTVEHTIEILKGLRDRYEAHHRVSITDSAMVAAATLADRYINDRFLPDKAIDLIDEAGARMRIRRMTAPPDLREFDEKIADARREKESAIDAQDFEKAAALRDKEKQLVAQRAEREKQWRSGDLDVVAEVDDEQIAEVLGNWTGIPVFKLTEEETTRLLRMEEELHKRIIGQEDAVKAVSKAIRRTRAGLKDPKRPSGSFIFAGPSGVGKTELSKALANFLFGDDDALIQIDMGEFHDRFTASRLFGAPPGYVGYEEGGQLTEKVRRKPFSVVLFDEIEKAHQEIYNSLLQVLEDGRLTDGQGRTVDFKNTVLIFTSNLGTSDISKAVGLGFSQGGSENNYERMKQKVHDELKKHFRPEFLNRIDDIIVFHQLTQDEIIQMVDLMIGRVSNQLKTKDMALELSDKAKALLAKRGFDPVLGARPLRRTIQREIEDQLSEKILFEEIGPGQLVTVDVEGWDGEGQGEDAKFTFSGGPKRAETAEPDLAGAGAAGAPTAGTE

[9] = molecular target: ClpC1 NTD protein (M. tuberculosis) (Mycobacterium tuberculosis, UniProt P9WPC9); experiment: biochemical; format: binding; conditions: SPR
ClpC1 NTD protein (M. tuberculosis), sequence (P9WPC9 1-156, looked up, natural form): as the sequence (P9WPC9 1-156, looked up, natural form) above

[10] = tested on: Caco-2 monolayers; experiment: in vitro; conditions: human, Caco-2
In short: (§2)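 Permeability across Caco-2 monolayers was measured in both directions, apical-to-basolateral and basolateral-to-apical, in 10^-6 cm s-1. Efflux ratio = P(B−A)/P(A−B). Intrinsic permeability is the mean of P(A−B) and P(B−A).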

[11] = in vitro; conditions: human
In short: as §2

[12] = tested on: Msm 700084; experiment: microbe, parasite or virus in culture; format: cell-based
[13] = Hepatocyte stability, mice; format: in vitro ADME; conditions: mouse, pH 7.4
In short: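 Cryopreserved mouse hepatocytes (about 1 million cells/mL, pH 7.4, 50% species serum) incubated with 1 µM compound, DMSO <0.05%, at 37 °C for up to 6 h, sampled at 6 time points. Parent remaining measured by HPLC-MS/MS; half-life converted via well-stirred liver model to clearance as % Qh.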

[14] = tested on: Mtb H37Rv in THP-1 macrophages; experiment: Intracellular MIC assay in THP-1 macrophages; format: cell-based, Mycobacterium tuberculosis; set-up: Emax: unit not given here
[15] = format: in vitro ADME, Rat; conditions: rat, pH 7.4
[16] = mean of the measurements, read-out: 1-Dmax, Mean
[17] = mean of the measurements, read-out: DC50, Mean

Compound: CO[C@H](c1ccccc1)[C@@H]1NC(=O)[C@H](C)NC(=O)[C@H](C[C@@H](C)CO)N(C)C(=O)[C@H](Cc2cn(C)c3ccccc23)NC(=O)[C@H](Cc2cn(CCOCCOCCn3cc(C[C@@H]4NC(=O)[C@H](CC(C)C)N(C)C(=O)[C@H](C(C)C)NC(=O)[C@H]([C@H](OC)c5ccccc5)NC(=O)[C@H](C)NC(=O)[C@H](C[C@@H](C)CO)N(C)C(=O)[C@H](Cc5cn(C)c6ccccc56)NC4=O)nn3)nn2)NC(=O)[C@H](CC(C)C)N(C)C(=O)[C@H](C(C)C)NC1=O [Compound 11]
- Microsomal Stability Mice [1]: < 24 %Qh
- Hepatocyte Human [2]: 12 %Qh
- Hepatocyte Stability Human QH [2]: 12.386%
- MIC ([3]; Mycobacterium tuberculosis, M. tuberculosis H37Rv strain, read-out: MIC Mtb H37Rv Mean ± SD): 0.1 µM (≈ 0.203 µg/mL)
- MIC ([3]; Mycobacterium tuberculosis, Mtb H37Rv (Supplementary Table 2), read-out: MIC Mtb): 0.1 µM (≈ 0.203 µg/mL)
- MIC ([3]; Mycobacterium tuberculosis, individual measurements (source data), read-out: Mtb MIC): 0.097 µM (≈ 0.197 µg/mL)
- MIC ([3]; Mycobacterium tuberculosis, single determinations, read-out: Mtb MIC): 0.097 µM (≈ 0.197 µg/mL)
- MIC ([3]; individual measurements (source data), read-out: Mtb MIC): 0.097 µM (≈ 0.197 µg/mL)
- Microsomal Stability Human QH ([4]; Human): <24.4%
- Microsomal Stability Human ([4]; clearance in microsomes): < 24 %Qh
- Microsomal Stability Rat QH ([5]; Rat): <23.1%
- Microsomal Stability Rat ([5]; clearance in microsomes): < 23 %Qh
- MIC ([6]; Mycolicibacterium smegmatis, 607, read-out: MIC Msm 607): 1.6 µM (≈ 3.24 µg/mL)
- MIC ([6]; Mycolicibacterium smegmatis, 607, read-out: Msm 607 MIC, single determinations): 1.56 µM (≈ 3.16 µg/mL)
- 1-Dmax, single measurements ([7]; Measurement 1-4): 69.6%
- 1-Dmax (percent substrate remaining at maximal degradation) ([7]; Measurement 1-4, read-out: 1-Dmax, single measurements): 77.4%
- DC50 ([7]; Measurement 1-4, read-out: DC50, single measurements): 4700 nM and 5400 nM
- 1-Dmax (percent substrate remaining at maximal degradation) [7, 16]: 74%
- DC50 [7, 17]: 5100 nM
- 1-Dmax, single measurements ([8]; Measurement 1-6): 84.8% and 87.6% and 91.1%
- 1-Dmax (percent substrate remaining at maximal degradation) ([8]; Measurement 1-6, read-out: 1-Dmax, single measurements): 85.6%
- DC50 ([8]; Measurement 1-6, read-out: DC50, single measurements): 7400 nM and 6100 nM and 5000 nM and 3900 nM
- 1-Dmax (percent substrate remaining at maximal degradation) [8, 16]: 87%
- DC50 [8, 17]: 5600 nM
- Kd ([9]; individual measurements (source data), read-out: KD ClpC1-NTD): 0.306 nM and 0.313 nM and 0.72 nM and 0.499 nM and 0.412 nM and 0.253 nM and 0.262 nM
- koff ClpC1-NTD ([9]; single independent measurements): 0.0009 s⁻¹ and 0.0004 s⁻¹
- Kd ([9]; read-out: ClpC1-NTD KD Mean ± SD): 0.4 ± 0.2 nM
- Caco-2 Int. Perm [10]: 2.9
- efflux ratio ([11]; Caco-2): 2.6
- Papp B→A ([11]; Caco-2, CACO permeability PEBA): 0.36 ×10⁻⁶ cm/s
- Papp A→B ([11]; Caco-2, Caco-2 permeability P (A-B)): 1.6 ×10⁻⁶ cm/s
- Papp B→A ([11]; Caco-2, Caco-2 permeability P (B-A)): 4.2 ×10⁻⁶ cm/s
- MIC ([12]; Mycolicibacterium smegmatis, 700084, single determinations, read-out: Msm 700084 MIC): 1.56 µM (≈ 3.16 µg/mL)
- MIC ([12]; Mycolicibacterium smegmatis, 700084, read-out: MIC Msm 700084): 1.6 µM (≈ 3.24 µg/mL)
- Hepatocyte Mice [13]: 15 %Qh
- Emax [14]: 0.51
- Hepatocyte Rat [15]: 6 %Qh
- Hepatocyte Stability Rat QH [15]: 6.192%
